Patent US9663454B2, “3-aryl propiolonitrile compounds for thiol labeling” (Universite de Strasbourg, priority 2013, dated 2017)

Key:
[1] = Selectivity screening of electrophiles on amino acid benzylamides, HPLC; details: in 1 hour in PBS (1×, pH 7.6) in presence of the electrophile, 1 mM reagents
Procedure: (§1) Screening for selectivity was done on benzylamides of non-protected amino acids. 100 mM stock solutions of benzylamides of amino acids (in form of TFA salts) and electrophiles (phenylpropiolonitrile and phenylmaleimide) were prepared in DMSO and stored at −20° C. A 100 mM stock solution of benzamide (used as an internal standard) was prepared in distilled water and stocked at −20° C. Analyses of reaction mixtures were conducted with Shimadzu LC with SunFire™ C18 5 μM 4.6×150 mm column (Waters). HPLC parameters were as follows: flow rate 1 mL/min, gradient from 5 to 95% of mobile phase B from 0 to 20 min, followed by 5 min at 95% of mobile phase and post time of 5 min. Mobile phase A was 0.05% TFA in water (mQ) (v/v), and mobile phase B was acetonitrile (HPLC grade). Data were analyzed using Shimadzu analysis software. Signals were normalized according to the area of the peak of the internal standard (benzamide). Areas under the peaks of the amino acid benzylamides were used to calculate their conversion during reaction.
10 μL of the stock solution of amino acid benzamide and 2.5 μL of the stock solution of benzamide were added to a vial containing 977.5 μL of PBS (1×, pH 7.6). The solution was stirred and 10 μL of the stock solution of electrophile were added to give 1 mM final concentrations of reagents and 0.25 mM concentration of benzamide. Aliquots of the reaction mixture (50 μL) were analyzed by HPLC for 1 hour of hydrolysis (injections at 0, 30 and 60 min). Areas under the peaks of the starting materials and hydrolysis products were normalized according to the area of peak of the internal standard. In case of phenylpropiolonitrile, none of amino acid models gave more than 1.6% conversion (see table 3 below). […] Masses of corresponding adducts were detected by mass spectrometry (ESI-LCMS) in some cases (shown in bold, Table 4).

[2] = Hydrolytic stability in PBS, HPLC monitoring; type: physicochemical; details: PBS (1×, pH 7.6), 1 mM, 25° C.
Procedure: FIG. 3a-3b: HPLC monitoring of the hydrolysis of phenylmaleimide (2) in PBS (1×, pH 7.6) at 1 mM concentration at 25° C.; the peaks correspond, from the earliest to the latest, to
[drawing 5] conversion was monitored by disappearance of the starting material (a). Pseudo first order rate constant for the reaction was determined by plotting the ln([phenylmaleimide]) versus time and analyzing by linear regression. The constant corresponds to the absolute value of determined slope (b).
FIG. 4: HPLC monitoring of hydrolytic stability of N-(4-(cyanoethynyl)phenyl)acetamide (pNHAc-APN, 11) in PBS (1×, pH 7.6) at 1 mM concentration at 25° C. Conversion was monitored by disappearance of the starting material; the peaks correspond, from the earliest to the latest, to
To a vial containing 980 μL of PBS (1×, pH 7.6), were subsequently added 10 μL of a stock solution of benzamide and 10 μL of a stock solution of electrophile (phenylmaleimide 1 or
[drawing 112] 11) to give final concentration of 1 mM (both internal standard and electrophile). Aliquots of the reaction mixture (50 μL) were analyzed by HPLC for 5 hours of hydrolysis (injection every 30 min). Areas under the peaks of the starting materials and hydrolysis products were normalized according to the area of the peak of the internal standard.

[3] = Selectivity screening of electrophiles, whole panel of amino acid models; details: 1 hour, PBS (1×, pH 7.6), 1 mM reagents
Procedure: as §1, with “Areas under the peaks of the amino acid benzylamides were used to calculate their conversion during reaction.” left out
10 μL of the stock solution of amino acid benzamide and 2.5 μL of the stock solution of benzamide were added to a vial containing 977.5 μL of PBS (1×, pH 7.6). […] Aliquots of the reaction mixture (50 μL) were analyzed by HPLC for 1 hour of hydrolysis (injections at 0, 30 and 60 min). […] Masses of corresponding adducts were detected by mass spectrometry (ESI-LCMS) in some cases (shown in bold, Table 4).

BNL CL.2 cells = assay: Stability of probes A and B in cellulo (cytometry, microscopy); type: cell-based, mouse; details: 1 μM, 2, 6 and 24 hours, FIG. 2
Procedure: FIG. 2a-2c: a) Evolution of intensity of fluorescence over time obtained in cellulo for the same concentration of compounds A and B. • b) Intensity ratio compound B/compound A at different times in cellulo. • c) Microscope pictures of cells treated with compounds A and B, superimposition of TAMRA and Hoechst labeling. White spots around nucleus correspond to hydrolyzed probe. A—arylpropiolonitrile probe, B—maleimide probe.
Normal liver BNL CL.2 cells from mouse were grown in Dulbecco's MEM medium with 1 g/l glucose (Eurobio, Les Ulis, France) supplemented with 10% fetal bovine serum (Perbio, Brebieres, France), 2 mM L-Glutamine, 100 U/mL penicillin, 100 μg/mL streptomycin (Eurobio). Cells were maintained in a 5% CO2 humidified atmosphere at 37° C.
The required amounts of probes A and B were diluted up to 300 μl in MEM complete medium to give final concentration of 1 μM and then added onto the cells. A 5 μg/ml of Hoechst 118 solution was used as a nuclear marker.
The day before experiment, BNL CL.2 cells were seeded in 96-plates (Greiner Bio One, Frickenhausen, Germany) at 2.0×10^4 cells/well in Dulbecco's MEM complete medium. […] After washing with PBS (Eurobio), 5 min incubation with 40 μl trypsine, and addition of 160 μl of PBS EDTA 5 mM, cells were analyzed by flow cytometry on a PCA-96 Guava cytometer (Guava Technologies Merck Millipore, Billerica, Mass., USA) with a green laser.

[4] = Stability of probes A and B in human plasma (fluorescence over time); type: in vitro ADME; details: same concentration of A and B, FIG. 1
Excerpt: FIG. 1: Evolution of intensity of fluorescence over time obtained in human plasma for the same concentration of compounds A and B.
The stability of compounds A (according to the invention) and B (reference compound) below was studied in different biological conditions.

Compound: O=C1C=CC(=O)N1c1ccccc1 [phenylmaleimide, reference compound]
- Conversion of AlaNHBn (7c) [1]: 0.2%
- Conversion of ArgNHBn (7k) [1]: 2.9%
- Conversion of AspNHBn (7l) [1]: 1.3%
- Conversion of CysNHBn (7a) [1]: 100%
- Conversion of GlnNHBn (7i) [1]: 1.7%
- Conversion of GlyNHBn (7b) [1]: 3.3%
- Conversion of HisNHBn (7h) [1]: 8.5%
- Conversion of MetNHBn (7f) [1]: 1.9%
- Conversion of SerNHBn (7e) [1]: 2.8%
- Conversion of TrpNHBn (7j) [1]: 1.0%
- Conversion of TyrNHBn (7g) [1]: 2.4%
- Conversion of ValNHBn (7d) [1]: 0.9%
- kobs (pseudo first order rate constant of hydrolysis) [2]: 7e-05 s⁻¹
- hydrolysis (in words) ([2]; up to 5 hours of monitoring): Noticeable hydrolysis
- highest conversion among the amino acid models other than cysteine [3]: up to 8.5%

Compound: COc1cc(/N=N/c2ccc([N+](=O)[O-])cc2)c(OC)cc1/N=N/c1ccc(N(C)CCCC(=O)NCCSC(=CC#N)c2ccc(NC(=O)CCCNC(=O)c3ccc(-c4c5ccc(=[N+](C)C)cc-5oc5cc(N(C)C)ccc45)c(C(=O)[O-])c3)cc2)cc1 [A]
- stability in cellulo (in words) (BNL CL.2 cells): far more stable than compound B in cellulo
- stability in human plasma (in words) [4]: far more stable than compound B in human plasma

Compound: N#CC#Cc1ccccc1 [phenylpropiolonitrile]
- Conversion of AlaNHBn (7c) [1]: 0.1%
- Conversion of ArgNHBn (7k) [1]: 0.4%
- Conversion of AspNHBn (7l) [1]: 0.6%
- Conversion of CysNHBn (7a) [1]: 98%
- Conversion of GlnNHBn (7i) [1]: 0.1%
- Conversion of GlyNHBn (7b) [1]: 0.2%
- Conversion of HisNHBn (7h) [1]: 0.6%
- Conversion of MetNHBn (7f) [1]: 0.1%
- Conversion of SerNHBn (7e) [1]: 0.3%
- Conversion of TrpNHBn (7j) [1]: 1.3%
- Conversion of TyrNHBn (7g) [1]: 1.6%
- Conversion of ValNHBn (7d) [1]: 0.7%
- highest conversion among the amino acid models other than cysteine [3]: ≤ 1.6%
